Where a name gives a salt, the structure may show the parent alone.
Columns and labels:
[1] = target: T1, JMJD2C (KDM4C) (Homo sapiens, UniProt Q9H3R0); parameters: method as in PMID 26682036; settings: cited from earlier work
T1 sequence (Q9H3R0 1-1056): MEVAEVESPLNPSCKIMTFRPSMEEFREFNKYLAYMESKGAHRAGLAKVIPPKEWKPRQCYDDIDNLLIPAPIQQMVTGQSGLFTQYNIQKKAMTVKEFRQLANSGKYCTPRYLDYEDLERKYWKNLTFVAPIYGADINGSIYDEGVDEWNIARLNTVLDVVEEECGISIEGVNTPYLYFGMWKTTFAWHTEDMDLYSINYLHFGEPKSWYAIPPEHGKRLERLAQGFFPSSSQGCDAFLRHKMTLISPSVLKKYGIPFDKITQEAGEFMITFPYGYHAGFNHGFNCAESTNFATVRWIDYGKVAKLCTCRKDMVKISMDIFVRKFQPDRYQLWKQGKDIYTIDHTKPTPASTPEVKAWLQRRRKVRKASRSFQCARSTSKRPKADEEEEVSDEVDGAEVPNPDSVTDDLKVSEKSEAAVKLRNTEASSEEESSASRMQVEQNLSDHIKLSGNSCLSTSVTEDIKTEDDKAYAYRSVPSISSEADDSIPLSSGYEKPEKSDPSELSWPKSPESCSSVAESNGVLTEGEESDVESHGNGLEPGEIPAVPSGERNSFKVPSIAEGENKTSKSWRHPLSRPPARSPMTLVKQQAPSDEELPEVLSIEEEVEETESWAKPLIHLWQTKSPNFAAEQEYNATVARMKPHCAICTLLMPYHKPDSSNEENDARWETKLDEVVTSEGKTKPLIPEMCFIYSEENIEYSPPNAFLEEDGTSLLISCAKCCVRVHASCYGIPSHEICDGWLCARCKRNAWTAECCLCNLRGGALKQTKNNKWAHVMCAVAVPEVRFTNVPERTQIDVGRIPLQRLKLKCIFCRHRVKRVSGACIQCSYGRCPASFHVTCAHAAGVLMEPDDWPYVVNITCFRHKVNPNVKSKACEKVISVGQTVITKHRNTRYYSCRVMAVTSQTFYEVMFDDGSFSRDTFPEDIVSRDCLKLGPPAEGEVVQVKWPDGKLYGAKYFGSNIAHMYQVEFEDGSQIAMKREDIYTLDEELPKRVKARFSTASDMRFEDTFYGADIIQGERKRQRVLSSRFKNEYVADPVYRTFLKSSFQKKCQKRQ

[2] = target: FIH (Homo sapiens, UniProt Q9NWT6); experiment: FIH liquid chromatography-mass spectrometry assay (RapidFire)
Procedure: After 15 minutes, the enzyme reaction was stopped by the addition of 4 ml 10% formic acid and the reaction mixture transferred to a RapidFire RF360 high throughput sampling robot. Samples were aspirated under vacuum onto a C4 Solid Phase Extraction (SPE) cartridge. […] Ion chromatogram data was extracted for the non-hydroxylated peptide substrate and the hydroxylated peptide product and peak area data for extracted ion chromatograms were integrated using RapidFire Integrator software. Percentage conversion of substrate to product was calculated in Microsoft Excel and IC50 values were calculated using Graphpad Prism 5.

[3] = target: T2, JMJD2A (KDM4A) (Homo sapiens, UniProt O75164); parameters: method as in PMID 26682036; settings: cited from earlier work
T2 sequence (O75164 1-1064): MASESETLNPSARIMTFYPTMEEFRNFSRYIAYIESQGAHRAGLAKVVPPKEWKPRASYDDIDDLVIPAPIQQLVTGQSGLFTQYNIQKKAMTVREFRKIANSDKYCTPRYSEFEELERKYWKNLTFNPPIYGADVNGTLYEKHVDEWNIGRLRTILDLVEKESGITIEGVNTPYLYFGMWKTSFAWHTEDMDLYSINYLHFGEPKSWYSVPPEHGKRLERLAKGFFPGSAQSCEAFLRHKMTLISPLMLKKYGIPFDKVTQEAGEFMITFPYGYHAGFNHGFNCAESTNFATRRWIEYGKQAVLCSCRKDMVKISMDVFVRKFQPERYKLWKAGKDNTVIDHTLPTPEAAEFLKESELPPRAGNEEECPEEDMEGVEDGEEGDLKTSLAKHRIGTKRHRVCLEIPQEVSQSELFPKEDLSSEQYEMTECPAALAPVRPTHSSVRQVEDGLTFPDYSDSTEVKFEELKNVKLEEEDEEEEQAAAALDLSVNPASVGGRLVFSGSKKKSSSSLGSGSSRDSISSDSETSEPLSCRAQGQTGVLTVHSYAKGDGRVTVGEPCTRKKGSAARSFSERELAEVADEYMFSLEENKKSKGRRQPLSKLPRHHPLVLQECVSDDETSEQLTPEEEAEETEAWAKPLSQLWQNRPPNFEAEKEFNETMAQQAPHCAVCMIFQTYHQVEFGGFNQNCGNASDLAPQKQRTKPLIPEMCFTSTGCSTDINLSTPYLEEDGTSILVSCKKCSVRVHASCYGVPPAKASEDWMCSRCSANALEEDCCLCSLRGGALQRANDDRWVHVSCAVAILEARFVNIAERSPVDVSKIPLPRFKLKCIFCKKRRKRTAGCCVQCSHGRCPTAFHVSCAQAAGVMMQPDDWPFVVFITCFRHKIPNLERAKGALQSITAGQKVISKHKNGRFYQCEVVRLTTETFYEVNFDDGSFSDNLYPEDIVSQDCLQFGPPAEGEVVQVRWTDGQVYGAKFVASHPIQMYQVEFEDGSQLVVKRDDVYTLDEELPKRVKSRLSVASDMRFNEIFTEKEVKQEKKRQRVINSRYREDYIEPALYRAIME

[4] = target: T3, BBOX1 (Homo sapiens, UniProt O75936); parameters: method as in PMID 22730246; settings: cited from earlier work
T3 sequence (O75936 1-387): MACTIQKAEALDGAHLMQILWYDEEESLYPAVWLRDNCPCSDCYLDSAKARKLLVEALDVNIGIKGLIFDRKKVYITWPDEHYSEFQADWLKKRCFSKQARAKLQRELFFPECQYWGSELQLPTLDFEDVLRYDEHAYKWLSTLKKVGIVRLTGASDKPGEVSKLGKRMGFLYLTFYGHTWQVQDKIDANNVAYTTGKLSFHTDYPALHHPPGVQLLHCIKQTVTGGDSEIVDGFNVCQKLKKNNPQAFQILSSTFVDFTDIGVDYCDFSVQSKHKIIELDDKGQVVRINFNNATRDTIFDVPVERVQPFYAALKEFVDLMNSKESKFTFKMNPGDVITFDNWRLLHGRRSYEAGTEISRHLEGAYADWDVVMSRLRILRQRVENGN

[5] = test system: HIF1α and HIF2α; experiment: HIFα induction in tissues of treated mice (immunoblotting); assay type: in vivo, C57BL/6 mice; settings: i.p.
Procedure: All animal experiments were performed on male C57BL/6 mice aged 3 months (purchased from Harlan Laboratories, Blackthorn) housed in specific pathogen free conditions with free access to water and standard chow. Mice were injected intraperitonially with the inhibitor (dissolved in Hanks’ buffered saline solution, pH 7.0, 5% DMSO final) or vehicle at the indicated doses for the indicated time as previously described. Tissues from treated mice were harvested and ‘snap frozen’ with liquid nitrogen before being stored at -80°C. For immunoblotting, a portion of the tissues was removed, weighed and homogenised in urea/SDS buffer before being analysed by immunoblotting with HIF1α rabbit polyclonal antibody (10006421, Cayman Chemical, 1:1000) or HIF2α rabbit polyclonal antibody (PM9 [27], 1:1000). For RNA extraction, tissues were ‘snap frozen’ in liquid nitrogen immediately after harvesting, then ground to a fine powder using a cryogenic tissue pulveriser, keeping samples on dry ice at all times and processed for total RNA extraction using the mirVana miRNA isolation kit (AM1560, Life Technologies) according to the manufacturer’s protocol for processing frozen tissues. All animal procedures were compliant with the UK Home Office Animals (Scientific Procedures) Act 1986 and Local Ethical Review Procedures (University of Oxford Medical Sciences Division Ethical Review Committee).
The inhibitors or vehicle controls were injected intraperitonially into wild type C57BL/6 mice and sacrificed after the indicated treatment time before harvesting their tissues to be analysed for HIFα levels by immunoblotting.

[6] = target: PHD2 (Homo sapiens, UniProt Q9GZT9); experiment: Competition-based NMR reporter ligand displacement assay ([13C]-2OG / [13C]-CODD); assay type: binding; settings: 50 μM apo-PHD2, 400 μM Zn(II), 400 μM competitor
Procedure: For 2OG displacement assays, selective ^1H-^13C 1D-HSQC experiments were conducted at 700 MHz using a Bruker Avance III spectrometer equipped with an inverse TCI cryoprobe optimized for ^1H observation. The CLIP-HSQC sequence was used (without ^13C decoupling). Typical experimental parameters were as follows: acquisition time 0.58 s, relaxation delay 2 s, number of transients 256−1600. The 1JCH was set to 160 Hz. For the selective version of the experiment, a 6.8 ms Q3 180 degree pulse was used, and selective irradiation was applied at the appropriate [^13C] chemical shift. Three millimeter MATCH tubes with a 160 μL final sample volume were used. Solutions were buffered using Tris-D11 50 mM (pH 7.5) dissolved in 90% H2O and 10% D2O. Assays were conducted at 298 K in solutions typically containing 50 μM apo-PHD2, 400 μM Zn(II), 50 μM 1,2,3,4-[^13C]-2OG or [^13C]-labeled CODD (uniformly [^13C]-labeled at proline-564) and 400 μM competitor (except unlabeled CODD competitor used at 800 μM). Selective irradiation was applied at 30.5 ppm for [^13C]-2OG and 24.25 ppm for [^13C]-labeled CODD. Percentage displacement was calculated according to equation: (I−I0)/(Iblank−I0) where I 0 is the intensity of the reporter in the presence of protein but without inhibitor, I is the intensity of the reporter in the presence of protein and inhibitor, and I blank is the intensity of the reporter without protein or inhibitor.
The results reveal that the previously described inhibitor IOX2 displaces 2OG from PHD2 (S3A Fig), consistent with its predicted binding mode. […] Previous crystallographic studies have shown that the HIF substrate can still bind even when the 2OG active site is occupied by some, but not all, inhibitors.

[7] = 1 h, equimolar: IOX2 37.7 mg/kg, IOX4 35 mg/kg, DMOG 75 mg/kg

PHD2, sequence (Q9GZT9 whole entry): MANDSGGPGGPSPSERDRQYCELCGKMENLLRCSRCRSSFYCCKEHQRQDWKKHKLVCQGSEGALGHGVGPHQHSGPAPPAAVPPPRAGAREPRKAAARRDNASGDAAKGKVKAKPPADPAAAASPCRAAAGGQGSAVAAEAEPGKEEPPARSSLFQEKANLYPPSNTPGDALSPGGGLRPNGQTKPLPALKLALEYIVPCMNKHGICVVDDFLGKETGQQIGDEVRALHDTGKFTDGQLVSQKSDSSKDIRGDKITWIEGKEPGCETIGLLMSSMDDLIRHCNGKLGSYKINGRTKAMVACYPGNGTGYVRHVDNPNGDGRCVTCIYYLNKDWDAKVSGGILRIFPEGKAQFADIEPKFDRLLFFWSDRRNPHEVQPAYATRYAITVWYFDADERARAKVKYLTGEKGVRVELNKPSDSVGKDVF
FIH, sequence (Q9NWT6 whole entry): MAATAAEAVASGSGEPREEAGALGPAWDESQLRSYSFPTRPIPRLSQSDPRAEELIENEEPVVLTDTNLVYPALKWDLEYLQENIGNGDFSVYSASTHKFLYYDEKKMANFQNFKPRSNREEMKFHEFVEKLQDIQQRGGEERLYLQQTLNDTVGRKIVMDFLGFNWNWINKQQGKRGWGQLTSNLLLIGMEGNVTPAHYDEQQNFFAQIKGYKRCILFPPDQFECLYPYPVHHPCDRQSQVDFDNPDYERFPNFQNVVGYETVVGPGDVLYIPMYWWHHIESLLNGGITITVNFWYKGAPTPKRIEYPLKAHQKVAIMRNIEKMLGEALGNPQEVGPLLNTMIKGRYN

For O=C(O)CNC(=O)C(=O)O [NOG, N-oxalylglycine], the IC50 [1] is given as 600 nM, the IC50 [2] is given as 2300 nM and the IC50 [3] is given as 200 nM. The IC50 [4] was 390 nM.
In the case of O=C(O)c1ccc(-n2[nH]cc(-n3ccnn3)c2=O)nc1 (as salt: hydrochloride) [compound 1, 6-(5-oxo-4-(1H-1,2,3-triazol-1-yl)-2,5-dihydro-1H-pyrazol-1-yl)pyridine-3-carbocylic acid hydrochloride], the melting point is reported as ≥ 316.6 °C (dec.).
With COC(=O)CNC(=O)C(=O)OC [DMOG, dimethyloxalylglycine] the “HIF1α and HIF2α induction in liver, kidney and heart” value [5, 7] was “induction of HIF1α and HIF2α” and the “HIF1α and HIF2α induction in the brain” value [5, 7] was “not”.
For O=C(O)Cc1cs/c(=N/C(=O)CS(=O)(=O)Cc2ccc3ccccc3c2)n1O [BNS, bicyclic naphthalenylsulfone hydroxythiazole], the “displacement of [13C]-2OG from PHD2” value [6] was “displace both 2OG and CODD” and the “displacement of [13C]-CODD from PHD2” value [6] was “displace both 2OG and CODD”.
With O=C(O)CNC(=O)c1nc(Cl)c2ccccc2c1O [IOX3] the “HIF1α induction in mouse liver” value ([5]; IOX2 37.7 mg/kg, IOX3 30 mg/kg (equivalent molar dose), 1 h and […]) was “lower and shorter induction of HIF1α”.
